Experimental data as given in publication PMC3748076 (2013).

How the values were obtained:
[1] = test system: WT 39-mer Bcl-2 promoter sequence G-quadruplex (39Bcl-2) (DNA, G4) AGGGGCGGGCGCGGGAGGAAGGGGGCGGGAGCGGGGCTG; assay: ESI-MS; settings: 50 mM ammonium acetate, 20% methanol, pH about 7, 80 µM DNA, 320 µM porphyrin
[2] = test system: WT 39-mer Bcl-2 promoter sequence G-quadruplex (39Bcl-2) (DNA, G4) AGGGGCGGGCGCGGGAGGAAGGGGGCGGGAGCGGGGCTG; assay: ITC; settings: 130 mM KCl, 20 mM potassium phosphate, 2 mM K4EDTA, pH 7.0, 25 °C

| binding ([1]; no free DNA seen) | K1 ([2]; site 1 of 2 (two equivalent sites per mode)) | binding ([1]; some free DNA seen) | K1 ([2]; two equivalent sites) | Structure (SMILES) |
| --- | --- | --- | --- | --- |
| yes | 37.0 ± 4.0 × 10^5 |  |  | C[n+]1ccc(-c2c3nc(c(-c4cc[n+](C)cc4)c4ccc([nH]4)c(-c4cc[n+](C)cc4)c4nc(c(-c5cc[n+](C)cc5)c5ccc2[nH]5)C=C4)C=C3)cc1 |
|  |  | yes | 2.6 ± 0.5 × 10^5 | C[n+]1cccc(-c2c3nc(c(-c4ccc[n+](C)c4)c4ccc([nH]4)c(-c4ccc[n+](C)c4)c4nc(c(-c5ccc[n+](C)c5)c5ccc2[nH]5)C=C4)C=C3)c1 |
|  |  | yes | 0.7 ± 0.5 × 10^5 | C[n+]1ccccc1-c1c2nc(c(-c3cccc[n+]3C)c3ccc([nH]3)c(-c3cccc[n+]3C)c3nc(c(-c4cccc[n+]4C)c4ccc1[nH]4)C=C3)C=C2 |
